Like-named read-outs stand apart in the source and are kept apart here.
Legend:
cathepsin D = cathepsin D (Homo sapiens, UniProt P07339); assay: Inhibition of cathepsin D activity (MALDI-TOF, substrate ELDLAVEFWHDR); format: biochemical
Description: [The source words this procedure for another target and reports this target under the same test.] (§1) A substrate peptide NH3-ELDLAVEFWHDR-CO2 (SEQ ID NO.: 1) was dissolved at 2 mg/mL in 10% glacial acetic acid and diluted into 0.009M NaOH to obtain μM concentration at pH 4.1. After equilibration at 37 degrees C., the reactions were initiated by the addition of an aliquot of memapsin 2. Aliquots were removed at time intervals, and combined with an equal volume of MALDI-TOF matrix (α-hydroxycinnamic acid in acetone, 20 mg/mL) and immediately spotted in duplicate onto a stainless-steel MALDI sample plate. MALDI-TOF mass spectrometry was performed on a PE Biosystems Voyager DE. The instrument was operated at 25,000 accelerating volts in positive mode with a 150 ns delay. Ions with a mass-to-charge ratio (m/z) were detected in the range of 650-2000 atomic mass units. Data were analyzed by the Voyager Data Explorer module to obtain ion intensity data for mass species of substrates and corresponding products in a given mixture. Relative product formation was calculated as the ratio of signal intensity of the product to the sum of signal intensities of both product and the corresponding substrate. Relative product formed per unit time was obtained from non-linear regression analysis of the data representing the initial 15% formation of product using the model:
where k was the relative hydrolytic rate constant and T was time in seconds. Initial rates were expressed relative to uninhibited controls and fit to a tight-binding model of competitive inhibition as above.

memapsin 1 = target: T1, memapsin 1 (Homo sapiens, UniProt Q9Y5Z0); assay: Inhibition of memapsin 1 beta-secretase activity (MALDI-TOF, substrate ELDLAVEFWHDR); format: biochemical; conditions: read-out: M1 Ki
T1 sequence (Q9Y5Z0 63-518): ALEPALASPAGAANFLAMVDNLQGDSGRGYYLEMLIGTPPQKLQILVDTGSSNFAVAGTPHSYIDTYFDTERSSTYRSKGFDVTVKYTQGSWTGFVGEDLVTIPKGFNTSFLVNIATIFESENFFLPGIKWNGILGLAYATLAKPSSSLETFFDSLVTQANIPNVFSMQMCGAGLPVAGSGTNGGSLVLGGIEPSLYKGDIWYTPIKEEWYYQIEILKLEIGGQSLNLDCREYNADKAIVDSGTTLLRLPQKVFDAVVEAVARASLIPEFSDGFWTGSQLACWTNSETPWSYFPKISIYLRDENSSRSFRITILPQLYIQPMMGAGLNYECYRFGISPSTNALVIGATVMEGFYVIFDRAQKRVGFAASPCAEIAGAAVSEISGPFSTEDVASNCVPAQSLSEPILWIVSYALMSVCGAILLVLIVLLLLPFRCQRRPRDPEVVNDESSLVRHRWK
Description: [The source words this procedure for another target and reports this target under the same test.] as §1
where k was the relative hydrolytic rate constant and T was time in seconds. […]

memapsin 2 [1] = target: memapsin 2 (Homo sapiens, UniProt P56817); assay: Inhibition of memapsin 2 beta-secretase activity (fluorogenic substrate FS-2); format: biochemical; conditions: pH 4, 37° C., read-out: M2 Ki
Sequence of memapsin 2 (Homo sapiens, UniProt P56817) (P56817 46-501): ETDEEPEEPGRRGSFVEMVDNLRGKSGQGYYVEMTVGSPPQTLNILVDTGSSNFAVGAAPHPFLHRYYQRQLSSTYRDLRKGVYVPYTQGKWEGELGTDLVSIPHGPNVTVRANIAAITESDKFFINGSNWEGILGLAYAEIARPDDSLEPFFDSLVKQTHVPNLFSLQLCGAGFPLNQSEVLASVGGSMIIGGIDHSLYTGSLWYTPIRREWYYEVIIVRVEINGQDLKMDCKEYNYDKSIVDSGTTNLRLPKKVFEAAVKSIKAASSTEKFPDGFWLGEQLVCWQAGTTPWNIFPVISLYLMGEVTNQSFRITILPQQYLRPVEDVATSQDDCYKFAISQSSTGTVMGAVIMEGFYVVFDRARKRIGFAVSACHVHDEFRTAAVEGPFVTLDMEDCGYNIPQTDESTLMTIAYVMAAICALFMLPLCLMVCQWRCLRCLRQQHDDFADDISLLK
Outline: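 Memapsin 2 pre-incubated with compound for 20 min at pH 4, 37° C. Reaction started with fluorogenic substrate FS-2, […], derived from Swedish-variant APP beta-secretase site; inhibition measured from fluorescence.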

memapsin 2 [2] = target: T2, memapsin 2 (Cricetulus griseus, UniProt G3IAK4); assay: Cellular Aβ IC50 determination (Aβ40 sandwich ELISA); format: cell-based, Chinese hamster; conditions: CHO cells over-expressing human APP695 with London and Swedish mutations, 24 h, read-out: M2 IC50
T2 construct: endogenous in cells; host or cells: Chinese hamster ovary cells over-expressing human APP695 (London + Swedish)
T2 sequence (G3IAK4 22-501): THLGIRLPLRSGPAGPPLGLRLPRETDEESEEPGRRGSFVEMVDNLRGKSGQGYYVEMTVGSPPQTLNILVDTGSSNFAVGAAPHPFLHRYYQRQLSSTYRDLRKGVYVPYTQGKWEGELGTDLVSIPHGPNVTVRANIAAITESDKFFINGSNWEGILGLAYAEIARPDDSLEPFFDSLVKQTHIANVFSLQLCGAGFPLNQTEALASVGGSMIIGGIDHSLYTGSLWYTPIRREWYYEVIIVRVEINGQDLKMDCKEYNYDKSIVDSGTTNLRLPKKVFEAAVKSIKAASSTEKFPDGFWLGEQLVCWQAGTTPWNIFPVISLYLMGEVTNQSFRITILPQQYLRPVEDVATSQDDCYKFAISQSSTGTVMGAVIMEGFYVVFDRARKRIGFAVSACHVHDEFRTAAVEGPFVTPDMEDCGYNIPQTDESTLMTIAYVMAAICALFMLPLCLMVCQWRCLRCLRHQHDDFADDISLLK
Outline: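 CHO cells overexpressing human APP695 (London and Swedish mutations) treated 48 h post-seeding with serially diluted compounds (top near 4 μM, 0.4% DMSO), 24 h at 37° C, 5% CO2. Medium Aβ40 measured by sandwich ELISA; levels relative to control fitted to 4-parameter IC50 model.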

Sequence of cathepsin D (P07339 65-412, species assumed): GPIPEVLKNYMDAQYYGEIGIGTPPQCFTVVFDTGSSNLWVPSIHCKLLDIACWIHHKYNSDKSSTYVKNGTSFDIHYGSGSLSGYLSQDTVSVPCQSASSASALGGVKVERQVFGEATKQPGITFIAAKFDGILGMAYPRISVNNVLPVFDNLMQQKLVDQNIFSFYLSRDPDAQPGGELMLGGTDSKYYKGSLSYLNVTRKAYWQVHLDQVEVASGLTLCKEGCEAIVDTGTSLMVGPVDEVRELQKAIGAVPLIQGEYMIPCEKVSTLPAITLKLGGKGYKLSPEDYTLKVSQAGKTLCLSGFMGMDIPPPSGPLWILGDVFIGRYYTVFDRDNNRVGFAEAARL

Ki (cathepsin D; read-out: CathD Ki): 48.8 nM
Ki (cathepsin D; substrate peptide ELDLAVEFWHDR, pH 4.1, 37 degrees C, read-out: CD Ki): < 300 nM
Ki (memapsin 1): 624 nM
Ki (memapsin 1; substrate peptide ELDLAVEFWHDR, pH 4.1, 37 degrees C): > 500 nM
Ki (memapsin 2 [1]): < 250 nM
IC50 (memapsin 2 [2]): < 500 nM
Structure (SMILES): Cc1csc([C@H]2CCCN2C(=O)c2cc(C(=O)N[C@@H](Cc3ccccc3)[C@H](O)[C@H]3C[C@@H](OCc4ccccc4)CN3)cc(-n3cccc3)c2)n1 [1-25, N-((1R,2S)-1-((2R,4R)-4-(benzyloxy)pyrrolidin-2-yl)-1-hydroxy-3-phenylpropan-2-yl)-3-((R)-2-(4-methylthiazol-2-yl)pyrrolidine-1-carbonyl)-5-(1H-pyrrol-1-yl)benzamide]

Source: patent publication US20120214802A1, “PYRROLIDINE COMPOUNDS WHICH INHIBIT BETA-SECRETASE ACTIVITY AND METHODS OF USE THEREOF” (priority 2009, published 2012)
